Reference: article PMC2697495 (The Journal of pharmacy and pharmacology, 2008)

Molecular target: T1, UGT1A1 (Homo sapiens, UniProt P22309)
T1 sequence (P22309 26-533): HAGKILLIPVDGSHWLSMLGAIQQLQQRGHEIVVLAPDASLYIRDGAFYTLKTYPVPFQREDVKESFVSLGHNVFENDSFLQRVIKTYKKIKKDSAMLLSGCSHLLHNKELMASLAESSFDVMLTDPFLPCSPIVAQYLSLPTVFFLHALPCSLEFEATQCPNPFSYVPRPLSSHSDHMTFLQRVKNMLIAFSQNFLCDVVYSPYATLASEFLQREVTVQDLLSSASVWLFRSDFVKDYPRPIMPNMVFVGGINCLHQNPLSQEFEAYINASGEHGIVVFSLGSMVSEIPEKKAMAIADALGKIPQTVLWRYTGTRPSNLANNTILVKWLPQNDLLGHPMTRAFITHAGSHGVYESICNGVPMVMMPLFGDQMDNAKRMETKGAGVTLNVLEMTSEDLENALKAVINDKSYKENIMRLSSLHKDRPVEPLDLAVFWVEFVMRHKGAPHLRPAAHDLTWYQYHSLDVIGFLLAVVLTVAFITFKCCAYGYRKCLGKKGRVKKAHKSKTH
Assay: Estradiol-3 glucuronidation by recombinant UGT1A1
Format: biochemical
Settings: for Estradiol-3 glucuronidation, % of the control activity (measured at 0 mM): UGT1A1, 100 μM estradiol, n=3

O=C(O)[C@@H](O)[C@H]1OC(=O)[C@H](O)[C@H]1O [saccharolactone, D-saccharic acid 1,4-lactone]
Estradiol-3 glucuronidation, % of the control activity (measured at 0 mM) (5 mM saccharolactone): 92±2% | Estradiol-3 glucuronidation, % of the control activity (measured at 0 mM) (20 mM saccharolactone): 87±5% | effect on estradiol glucuronidation (recombinant UGT1A1): no effect
